The text below walks through data of US20230183228A1, “SUBSTITUTED PYRAZOLYL COMPOUNDS AND METHODS OF USE THEREOF” (Chinook Therapeutics Canada, Inc., priority 2020, published 2023).

For one data set, the system named is PH1 patients. To be noted: cited from earlier work.
Data set [1] concerns the target T1, human recombinant C-terminal His-tagged LDHA (Homo sapiens, UniProt P00338).
T1 construct: His (C)
Kind of data set: Human LDHA enzyme assay, human serum albumin (HSA) shift. In kind it is biochemical. To be noted: final concentration 10% HSA. The protocol:
(§1) Compounds were dissolved in DMSO and preincubated with human recombinant C-terminal His-tagged LDHA (0.070 μg/mL) for 10 min at room temperature in assay buffer consisting 50 mM Tris, pH 7.5 and 100 mM NaCl in black walled, clear bottom, non-binding 96-well plates. Equal volumes of substrate solution containing 100 μM of pyruvate and 100 μM of NADH in assay buffer was added to each well (final concentration 0.035 μg/mL enzyme, 50 μM pyruvate, 50 μM NADH, and 1% DMSO). For human serum albumin (HSA) shift assay, the compounds were preincubated with the enzyme in assay buffer containing 20% HSA before substrate addition (final concentration 10% HSA). The reaction was monitored at 340 nm on a plate reader (Molecular Devices) in kinetic mode for 15 min. The rate of the reaction was determined by plotting absorbance vs time.

Data set [2] deals with fresh primary mouse hepatocytes. The data set is described as follows: Primary mouse hepatocyte assay (lactate production). In kind it is cell-based. As for the experimental part:
Compounds were evaluated in an ex vivo assay consisting of fresh primary mouse hepatocytes. Hepatocytes were isolated from wild type mice (C57BL/6NCrl from Charles River Labs) using a two-step collagenase perfusion technique which involves a sequential perfusion of anesthetized mice with Hanks' balanced salt solution and collagenase. Following isolation, viable wild type hepatocytes (0.1 M cells/well) were incubated with test compound in presence of pyruvate and compound potency was evaluated by measuring the lactate produced by the cells using liquid chromatography coupled to mass spectrometry. Chromatographic separation was achieved on an XDB-C18 4.6×50 mm column (Agilent, Cat #927975-902) at a flow rate of 1 mL/min Mobile phase A consisted of 0.1% formic acid in water and mobile phase B consisted of acetonitrile. A gradient program was initiated starting at 5% B which was held for 1 minutes, then ramped from 5% to 95% B over 1 minute. After holding at 95% B for 1 minute, the program changed back to 5% B. The column was equilibrated with 5% B for […] before the next injection. The mass spectrometer was operated in negative mode with electrospray ionization. The following transition along with their collision energy (CE) were used: 89→43 (CE: −16 V) for lactate and 92→45 (CE: −16 V) for ^13C3-Lactate (internal standard).

Data set [3] is described as follows: Liver and plasma concentrations in c57/bl6 mice. In kind it is in vivo. To be noted: 20 mg/kg PO. The protocol: [The procedure below names another organism; the source says it served here with some conditions changed.] Plasma and liver (target organ) concentrations of test compounds were determined in rats following a single per os (PO) administration of the test compounds. Male Sprague Dawley rats (6-8 weeks of age, Charles River Labs) were fasted overnight and a single dose of test compounds (10 mg/kg; as a suspension in 0.5% methyl cellulose) was administered by PO gavage. Rats were then sacrificed at 4 and 24 h after administration of the test compounds, and plasma and liver tissue samples were collected. Liver tissue samples were homogenized in 5 volumes of water:acetonitrile (50/50; v/v) mixture using a bead mill homogenizer. Plasma and liver homogenate samples were processed by protein precipitation using acetonitrile and the concentrations of the test compounds were determined by liquid chromatography-tandem mass spectrometry (SciEx triple quad 5500+ with Exion UPLC).
Liver and plasma exposures at the 4 h and 24 h timepoints for the various compounds are described in Table 5 below. Measured compound concentrations are as follows: ++++>10 μM; 10 μM≥+++>5 μM; 5 μM≥++>1 μM; 1 μM≥+>0.25 μM; and 0.25 μM≥−.

Data set [4] addresses T1, human recombinant C-terminal His-tagged LDHA. The data set is described as follows: Human LDHA enzyme assay. In kind it is biochemical. To be noted: 50 μM pyruvate, 50 μM NADH, no HSA. As for the experimental part: as §1
Where [5] appears, read: Run at 0.4M cells/well concentration of hepatocytes.

Marks after values point to notes of the source that are not given here.

Turning to `Cc1ncc(CO)c(CO)c1O` [Pyridoxine], the “lowering of urinary oxalate” value in the data set with PH1 patients was “approximately 30%”.
Take `NS(=O)(=O)c1ccc(Cc2c(-c3ccc(F)cc3)nn(-c3nc(C(=O)O)cs3)c2CCC2CC2)cc1` [Example 6, 2-(5-(2-cyclopropylethyl)-3-(4-fluorophenyl)-4-(4-sulfamoylbenzyl)-1H-pyrazol-1-yl)thiazole-4-carboxylic acid]: the IC50 in data set [1] is 10 to 100 nM; in data set [2] (setting [5]), 250 to 1000 nM; in data set [4], less than 1 nM. The “Measured Compound Concentrations Liver - 4 h” value in data set [3] is “++* (5 μM≥++>1 μM)”. The “Measured Compound Concentrations Plasma - 4 h” value in data set [3] is listed as “−* (0.25 μM≥−)”.
On to `NS(=O)(=O)c1ccc(Cc2c(-c3ccc(F)cc3)nn(-c3nc(C(=O)O)cs3)c2CC2CC2)cc1Cl` [Example 10, 2-(4-(3-Chloro-4-sulfamoylbenzyl)-5-(cyclopropylmethyl)-3-(4-fluorophenyl)-1H-pyrazol-1-yl)thiazole-4-carboxylic acid], for which, in data set [1], the IC50 fell in the range of 10 to 100 nM. Also, in data set [2] (0.1 M cells/well), the half-inhibitory concentration (IC50) lay in the range of 100 to 250 nM. Further, in data set [3], the “Measured Compound Concentrations Liver - 4 h” value is reported as “+++* (10 μM≥+++>5 μM)”, the “Measured Compound Concentrations Liver - 24 h” value is reported as “−* (0.25 μM≥−)”, the “Measured Compound Concentrations Plasma - 4 h” value is recorded as “−* (0.25 μM≥−)” and the “Measured Compound Concentrations Plasma - 24 h” value is listed as “−* (0.25 μM≥−)”. Also, the IC50 in data set [4] was less than 1 nM.
Take `CCc1c(Cc2ccc(S(N)(=O)=O)cc2)c(-c2ccc(F)cc2)nn1-c1nc(C(=O)O)cs1` [Example 4, 2-(5-ethyl-3-(4-fluorophenyl)-4-(4-sulfamoylbenzyl)-1H-pyrazol-1-yl)thiazole-4-carboxylic acid]: the half-inhibitory concentration (IC50) in data set [1] lay in the range of 10 to 100 nM; in data set [2] (setting [5]), 250 to 1000 nM; in data set [4], 1 to 10 nM. The “Measured Compound Concentrations Liver - 4 h” value in data set [3] is recorded as “++* (5 μM≥++>1 μM)”. Also, the “Measured Compound Concentrations Plasma - 4 h” value in data set [3] was “−* (0.25 μM≥−)”.
As to `Cc1c(Cc2ccc(S(N)(=O)=O)c(F)c2)c(-c2ccc(F)cc2)nn1-c1nc(C(=O)O)cs1` [Example 3, 2-(4-(3-Fluoro-4-sulfamoylbenzyl)-3-(4-fluorophenyl)-5-methyl-1H-pyrazol-1-yl)thiazole-4-carboxylic acid], the concentration for half-maximal inhibition (IC50) is 1 to 10 nM in data set [1], 250 to 1000 nM in data set [2] (setting [5]) and less than 1 nM in data set [4]. Besides, the “Measured Compound Concentrations Liver - 4 h” value in data set [3] was “++++* (++++>10 μM)”. Besides, the “Measured Compound Concentrations Plasma - 4 h” value in data set [3] is on record as “−* (0.25 μM≥−)”.
Take `NS(=O)(=O)c1ccc(Cc2c(-c3ccc(F)c(OC(F)F)c3)nn(-c3nc(C(=O)O)cs3)c2CC2CC2)cc1F` [Example 13, 2-(5-(cyclopropylmethyl)-3-(3-(difluoromethoxy)-4-fluorophenyl)-4-(3-fluoro-4-sulfamoylbenzyl)-1H-pyrazol-1-yl)thiazole-4-carboxylic acid]: in data set [1], the half-inhibitory concentration (IC50) was 1 to 10 nM. Moreover, the IC50 in data set [2] (setting [5]) lay in the range of 250 to 1000 nM. Also, in data set [3], the “Measured Compound Concentrations Liver - 4 h” value is “++* (5 μM≥++>1 μM)”, the “Measured Compound Concentrations Liver - 24 h” value is listed as “−* (0.25 μM≥−)”, the “Measured Compound Concentrations Plasma - 4 h” value is reported as “−* (0.25 μM≥−)” and the “Measured Compound Concentrations Plasma - 24 h” value was “−* (0.25 μM≥−)”. Besides, in data set [4], the IC50 was less than 1 nM.

Usually IC50 stands for the concentration needed to halve the response being measured.
